In publication PMC5011342, “A high throughput drug screening assay to identify compounds that promote oligodendrocyte differentiation using acutely dissociated and purified oligodendrocyte precursor cells” (BMC Research Notes, 2016):
Read-outs that look alike come from different tables or passages of the source.

Tests used:
[1] = test system: expanded OPCs; assay: cells; details: for viability at 0.1 µM / viability at 1 µM / viability at 10 µM: Rattus norvegicus, 72 h; for 0.1 µM (% DMSO) / 1 µM (% DMSO) / 10 µM (% DMSO): alamarBlue viability of expanded OPCs, relative to DMSO control; for 0.1 µM (% DMSO): compound at 0.1 µM; for 1 µM (% DMSO): compound at 1 µM; for 10 µM (% DMSO): compound at 10 µM
Outline: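 Expanded OPCs seeded at 10,000 cells/well in differentiation media, then exposed to NCC library compounds at 10, 1 and 0.1 µM (quadruplicate, 0.1% DMSO) for three days. Viability read as alamarBlue fluorescence (560/590 nm) after 4 h at 37 °C; tunicamycin 5 ng/ml served as toxicity control.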

[2] = test system: acutely dissociated and purified rat OPCs; assay: Acute OL differentiation assay (MBP expression/cell, immunofluorescent image quantification); assay type: cell-based; details: Rattus norvegicus; for activation at 0.08 µM: test compound at 0.08 uM, read-out: 0.08 uM (% Quet)
Outline: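 Oligodendrocyte precursor cells were enriched from P6-P7 Sprague–Dawley rat brains by immunopanning (RAN-2 and GalC depletion, O4 selection), plated at 5000 cells/well in serum-free, mitogen-free differentiation media on PDL/laminin 96-well view plates, centrifuged at 200×g, and pre-incubated 1–2 h before test compounds were added in quadruplicate. On DIV4, cells were fixed, stained for MBP and DAPI, imaged automatically, and MBP expression per cell was quantified.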

[3] = read-out: 0.1 µM (% DMSO), alamarBlue viability, NCC library compound at 0.1 µM, sheet "All Tox data"
[4] = read-out: 1 µM (% DMSO), alamarBlue viability, NCC library compound at 1 µM, sheet "All Tox data"
[5] = read-out: 10 µM (% DMSO), alamarBlue viability, NCC library compound at 10 µM, sheet "All Tox data"
[6] = test compound at 2 uM, NCC library screen, sheet "All OLga data", relative to quetiapine, read-out: 2 uM (% Quet)
[7] = test compound at 10 uM, NCC library screen, sheet "All OLga data", relative to quetiapine, read-out: 10 uM (% Quet)
[8] = read-out: 0.1 µM (% DMSO), alamarBlue viability of expanded OPCs, compound at 0.1 µM, sheet All Tox data
[9] = read-out: 1 µM (% DMSO), alamarBlue viability of expanded OPCs, compound at 1 µM, sheet All Tox data
[10] = read-out: 10 µM (% DMSO), alamarBlue viability of expanded OPCs, compound at 10 µM, sheet All Tox data
[11] = 2 uM test compound, relative to quetiapine, sheet "All OLga data", read-out: OL differentiation, 2 uM (% Quet)
[12] = 10 uM test compound, relative to quetiapine, sheet "All OLga data", read-out: OL differentiation, 10 uM (% Quet)
[13] = test compound at 2 uM, MBP expression relative to quetiapine, NCC library screen, sheet "All OLga data", read-out: 2 uM (% Quet)
[14] = test compound at 10 uM, MBP expression relative to quetiapine, NCC library screen, sheet "All OLga data", read-out: 10 uM (% Quet)
[15] = 0.4 uM test compound, relative to quetiapine, sheet "All OLga data", read-out: OL differentiation, 0.4 uM (% Quet)
[16] = NCC library screen, sheet "All OLga data", relative to quetiapine
[17] = test compound at 0.4 uM, NCC library screen, sheet "All OLga data", relative to quetiapine, read-out: 0.4 uM (% Quet)

SMILES | viability at 0.1 µM [1, 3] [%] | viability at 1 µM [1, 4] [%] | viability at 10 µM [1, 5] [%] | activation at 2 µM [2, 6] [%] | activation at 10 µM [2, 7] [%] | 0.1 µM (% DMSO) [1] [% DMSO] | 1 µM (% DMSO) [1] [% DMSO] | 10 µM (% DMSO) [1] [% DMSO] | other results
N[C@@H](C(=O)N[C@@H]1C(=O)N2C(C(=O)O)=C(Cl)CS[C@H]12)c1ccccc1 [Cefaclor] | 90.3 | 94.6 | 106 | -10.8 | 27.4 |  |  |  | 
N[C@@H](C(=O)N[C@@H]1C(=O)N2C(C(=O)O)=C(CSc3c[nH]nn3)CS[C@H]12)c1ccc(O)cc1 [Cefatrizine] |  |  |  |  |  |  |  |  | viability at 0.1 µM [1, 8]: 99.1%; viability at 1 µM [1, 9]: 95.1%; viability at 10 µM [1, 10]: 104%; activation at 2 µM [2, 11]: 11.1%; activation at 10 µM [2, 12]: -10.4%
Cc1nnc(SCC2=C(C(=O)O)N3C(=O)[C@@H](NC(=O)Cn4cnnn4)[C@H]3SC2)s1 [Cefazolin] | 95.1 | 92.5 | 96.9 | 6.4 | 0.95 |  |  |  | 
C=CC1=C(C(=O)O)N2C(=O)[C@@H](NC(=O)/C(=N\O)c3csc(N)n3)[C@H]2SC1 [Cefdinir] | 86.5 | 90.2 | 84.8 | 13.5 | 23 |  |  |  | 
C=CC1=C(C(=O)O)N2C(=O)[C@@H](NC(=O)/C(=N\OCC(=O)O)c3csc(N)n3)[C@H]2SC1 [Cefixime] | 82.1 | 68.5 | 67.3 | 6.6 | 63.5 |  |  |  | 
CO/N=C(\C(=O)N[C@@H]1C(=O)N2C(C(=O)O)=C(COC(C)=O)CS[C@H]12)c1csc(N)n1 [Cefotaxime] |  |  |  |  |  | 97.0 | 88.3 | 82.3 | activation at 2 µM [2, 13]: 9.9%; activation at 10 µM [2, 14]: 8.5%
CO[C@@]1(NC(=O)Cc2cccs2)C(=O)N2C(C(=O)O)=C(COC(N)=O)CS[C@@H]21 [Cefoxitin] |  |  |  | 4.1 | 0.14 | 88.0 | 88.0 | 85.5 | 
COCC1=C(C(=O)OC(C)OC(=O)OC(C)C)N2C(=O)[C@@H](NC(=O)/C(=N\OC)c3csc(N)n3)[C@H]2SC1 (some centres unmarked) [Cefpodoxime proxetil] |  |  |  |  |  |  |  |  | viability at 0.1 µM [1, 8]: 96.9%; viability at 1 µM [1, 9]: 90.7%; viability at 10 µM [1, 10]: 98%; activation at 2 µM [2, 11]: -7.7%; activation at 10 µM [2, 12]: -20.6%
CO/N=C(\C(=O)N[C@@H]1C(=O)N2C(C(=O)O)=C(COC(N)=O)CS[C@H]12)c1ccco1 [Cefuroxime] |  |  |  |  |  | 91.1 | 94.9 | 91.5 | activation at 2 µM [2, 13]: 13.5%; activation at 10 µM [2, 14]: 13.9%
Cc1ccc(-c2cc(C(F)(F)F)nn2-c2ccc(S(N)(=O)=O)cc2)cc1 [Celecoxib] |  |  |  |  |  | 94.3 | 89.6 | 87.2 | activation at 2 µM [2, 13]: 14.8%; activation at 10 µM [2, 14]: 9%
CC1=C(C(=O)O)N2C(=O)[C@@H](NC(=O)[C@H](N)c3ccccc3)[C@H]2SC1 [Cephalexin] |  |  |  |  |  |  |  |  | viability at 0.1 µM [1, 8]: 103%; viability at 1 µM [1, 9]: 110%; viability at 10 µM [1, 10]: 112%; activation at 2 µM [2, 11]: -1.3%; activation at 10 µM [2, 12]: -4.5%
COCc1c(C(C)C)nc(C(C)C)c(/C=C/[C@@H](O)C[C@@H](O)CC(=O)O)c1-c1ccc(F)cc1 [Cerivastatin] |  |  |  |  |  |  |  |  | viability at 0.1 µM [1, 8]: 97.3%; viability at 1 µM [1, 9]: 52.3%; viability at 10 µM [1, 10]: 11.5%; activation at 0.4 µM [2, 15]: -38.8%; activation at 2 µM [2, 11]: -191%
O=C(O)COCCN1CCN(C(c2ccccc2)c2ccc(Cl)cc2)CC1 (centres unmarked) [Cetirizine] | 92.3 | 89.3 | 87.4 | 9.7 | 9.5 |  |  |  | 
NC[C@H]1CC[C@H](C(=O)Oc2ccc(CCC(=O)O)cc2)CC1 [Cetraxate] |  |  |  |  |  |  |  |  | viability at 0.1 µM [1, 8]: 103%; viability at 1 µM [1, 9]: 92.1%; viability at 10 µM [1, 10]: 104%; activation at 2 µM [2, 11]: -6.2%; activation at 10 µM [2, 12]: -5.4%
C[C@H](CCC(=O)O)[C@H]1CC[C@H]2[C@@H]3[C@H](O)C[C@@H]4C[C@H](O)CC[C@]4(C)[C@H]3CC[C@]12C [Chenodeoxycholic Acid] |  |  |  | -24.3 | -7.9 | 111.3 | 107.5 | 110.8 | 
O=C(O)CCCc1ccc(N(CCCl)CCCl)cc1 [Chlorambucil] |  |  |  |  |  |  |  |  | viability at 0.1 µM ([1]; read-out: 0.1 µM (% DMSO)): 88%; viability at 1 µM ([1]; read-out: 1 µM (% DMSO)): 80.8%; viability at 10 µM ([1]; read-out: 10 µM (% DMSO)): 57.4%; activation at 2 µM ([2]; read-out: 2 uM (% Quet)): -18.6%; activation at 10 µM ([2]; read-out: 10 uM (% Quet)): -105%
O=C(N[C@H](CO)[C@H](O)c1ccc([N+](=O)[O-])cc1)C(Cl)Cl [Chloramphenicol] |  |  |  |  |  | 87.1 | 93.2 | 90.9 | activation at 2 µM [2, 13]: 9.3%; activation at 10 µM [2, 14]: 1.1%
CNC1=Nc2ccc(Cl)cc2C(c2ccccc2)=[N+]([O-])C1 [Chlordiazepoxide] | 91.2 | 93.8 | 90.6 | -0.9 | 23.8 |  |  |  | 
NS(=O)(=O)c1cc2c(cc1Cl)N=CNS2(=O)=O [Chlorothiazide] |  |  |  | -11.1 | -11.8 | 88.9 | 90.2 | 89.0 | 
Oc1c(Cl)cc(Cl)c2cccnc12 [Chloroxine] |  |  |  |  |  | 24.3 | 10.2 | 8.9 | activation at 0.08 µM [2, 16]: -87.1%
CN(C)CCC(c1ccc(Cl)cc1)c1ccccn1 (centres unmarked) [Chlorpheniramine] | 86.5 | 77.7 | 46.7 | 7.6 |  |  |  |  | activation at 0.4 µM [2, 15]: 8.7%; activation at 2 µM [2, 11]: 10.5%; activation at 0.4 µM [2, 17]: -6.7%
CN(C)CCCN1c2ccccc2Sc2ccc(Cl)cc21 [Chlorpromazine] | 67.2 | 38.2 | 10.5 |  |  |  |  |  | activation at 0.08 µM [2, 16]: 7.4%; activation at 0.4 µM [2, 17]: -44.8%
CCCNC(=O)NS(=O)(=O)c1ccc(Cl)cc1 [Chlorpropamide] |  |  |  | -27.8 | -19 | 185.9 | 197.2 | 208.8 | 
